Experiment [1] in a line: PGE2-induced febrile response after intracerebroventricular injection, telemetric body temperature. The settings on record: 4 nmol PGE2 intracerebroventricular. It is filed as in vivo, mice. As for the experimental part: We confirmed the absence of overt physiological signaling defects by ensuring that PGE2-evoked (the missing product in mPGESl1^−/− mice that is generated following LPS challenge) pyresis was indeed intact in mPGES1^−/− mice. We performed intracerebroventricular injections of PGE2 (4 nmol in 2 μl artificial cerebrospinal fluid) and then monitored using telemetry the body temperature in awake and unrestrained animals. […] Thus, a pronounced temperature increase was seen almost immediately after the PGE2 injection. It reached its peak after 30 minutes and lasted for about 1.5 hour. To determine that the elicited febrile response was due to specific activation of PGE2 receptors and not represented an unspecific response, we injected the same amount of PGE2 into EP3 receptor^−/− mice as we had injected into mPGES-1^−/− mice.
Telemetric temperature recordings: One week prior to each experiment, a temperature transmitter (Data Science International) was implanted into the peritoneal cavity of each mouse. Recordings were made via a receiver located beneath the cage and the data were fed into a computer. Recordings started at least one hour prior to surgery or injection, and were obtained every second minute throughout the entire session.
Intracerebroventricular injections of PGE2: Mice were mounted in a stereotaxic frame under anesthesia with 1% isoflurane in a 30/70% mixture of O2/N2, and kept at 37° C. through a feedback controlled heating pad. A drill hole was made in the skull through which a 29 gauge (o.d.) needle connected by a silicon tube to a Hamilton syringe was inserted into the lateral ventricle (0.5 mm posterior to Bregma, 1 mm lateral to midline, and 2.5 mm vertical to the skull surface), and 4 nmol PGE2 in 2 μl artificial cerebrospinal fluid was injected during 1 min. Control injection consisted of artificial cerebrospinal fluid. Two minutes after the end of the injection, the needle was removed, the skin sutured, and the gas anesthesia turned off. All animals were awake within 5 min after injection and were immediately returned to their home cage for resumed body temperature recordings.

Experiment [2] concerns the target T1, mPGES-1 (Homo sapiens, UniProt O14684).
T1 sequence (O14684 1-152): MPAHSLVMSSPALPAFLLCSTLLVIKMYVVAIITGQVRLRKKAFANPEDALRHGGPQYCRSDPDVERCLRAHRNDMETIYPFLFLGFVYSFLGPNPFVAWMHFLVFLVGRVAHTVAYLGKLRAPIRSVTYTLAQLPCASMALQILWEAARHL
The settings on record: literature values (Thoren et al. 2000; Mancini et al. 2001; Quraishi et al. 2002); read-out: IC50 for inhibition of mPGES-1; cited from earlier work.

For orientation: IC50 means the concentration at which inhibition is half-maximal.

As for `CCCCC[C@H](O)/C=C/[C@H]1[C@H](O)CC(=O)[C@@H]1C/C=C\CCCC(=O)O` (relative stereo) [PGE2, 11α, 15(S)-dihydroxy-9-ketoprosta-5-cis-13-trans-dienoic acid], the “duration of temperature increase” value in experiment [1] is listed as “about 1.5 hour”. In experiment [1], the “time to peak of temperature increase after injection” value was found to be 30 min. Moreover, the febrile response entry in experiment [1] (EP3 receptor−/− mice) is “did not display any febrile response”; in experiment [1] (mPGES-1−/− mice), “rapid and strong febrile response”. The temperature elevation result in experiment [1] (mPGES+/+ mice) was “rapid and pronounced temperature elevation”.

Consider `CCCCCC=CCC=CC=CC=CC(SCC(NC(=O)CCC(N)C(=O)O)C(=O)NCC(=O)O)C(O)CCCC(=O)O` [leukotriene C4, 5(S)-hydroxy-6(R)-S-glutathionyl-7,9-trans-11,14-cis-eicosa-tetraenoic acid], for which the IC50 in experiment [2] was 5 µM.
